Source: US10842801B2, “Optimizing mifepristone absorption” (Corcept Therapeutics, Inc., priority 2011, dated 2020)
Read-outs that look alike come from different tables or passages of the source.

Assays:
[1] = Food effect studies: pharmacokinetics of mifepristone under fasting and fed conditions; type: in vivo, human; settings: for AUC(0-inf) / Cmax / AUC(0-t): human, plasma, oral; for AUC(0-inf): read-out: AUCinf Geo Mean; for Cmax: read-out: Cmax Geo Mean; for AUC(0-t): read-out: AUC0-24 Geo Mean
Protocol: Blood is collected from a patient in a vacutainer containing sodium heparin. The blood is centrifuged and the resulting plasma frozen at an appropriate temperature until assay. In some embodiments, the temperature is about -70° C. In other embodiments, other blood components can be collected and stored. Prior to analysis, the plasma is thawed and a fraction of the plasma is mixed with an internal standard in a solvent such as acetonitrile, to obtain a fixed concentration of the standard. In some embodiments, the internal standard can be mifepristone-d4. […] Base is then added to the sample solution. The base can be any amine or ammonium base, such as ammonium hydroxide. […] Solvent is then added to the solution and the mifepristone (along with the internal standard) are extracted from the plasma. […] Following separation and concentration of the organic layer, the sample is reconstituted in a solvent mixture comprising water, acetonitrile and formic acid. The ratio of the solvent components can vary. In some embodiments, the solvent mixture is water:acetonitrile:formic acid (75:25:0.1, v/v/v). […] The sample can then be analyzed by reverse-phase high pressure liquid chromatography (HPLC). In some embodiments, the reverse-phase HPLC is performed using a water:acetonitrile:formic acid (60:40:0.1) mobile phase (isocratic) at a flow rate of 0.3 mL/min. […] The reverse-phase HPLC column can be a phenyl column maintained at 50° C. […] Following elution, the mobile phase can be nebulized using heated nitrogen in a Z-spray source/interface and the ionized compounds detected using a tandem quadrupole mass spectrometer. Mifepristone (molecular weight of 430 g/mol) can be detected at m/z 372.30. The internal standard mifepristone-d4 can be detected at m/z 376.30. The ratio of the mifepristone peak height to the peak height for the internal standard can then be calculated. The plasma concentration of mifepristone is then calculated by comparing the experimental ratio to a standard curve of mifepristone:mifepristone-d4 peak height ratio v. mifepristone concentration. […] In all studies, healthy adults were randomized to a sequence of administration of mifepristone drug product under fasting and fed conditions. […] The test group was comprised of 10 healthy adult subjects who were randomized to receive mifepristone at 600 mg/day for up to 14 days in Cohort 3 of Study CORT-108297-102. For this comparison the PK data after 7 days of dosing were used. […] The meal was given every day at approximately 30 min prior to receiving mifepristone, which was dosed as two 300 mg tablets once daily.

[2] = Plasma drug concentration in different patients given the same dose of mifepristone; type: in vivo, human
[3] = 600 mg single dose, Fed (50% fat) vs Fast, Study 12
[4] = 600 mg/day for 7 days following a breakfast of 34% fat, Day 7
[5] = 600 mg/day x 7 days, Fed (34% fat) vs Fast, C3
[6] = 1200 mg single dose, Fed (50% fat) vs Fast, Study 20
[7] = 1200 mg/day x 7 days, Fed (34% fat) vs Fast, Study 27
[8] = 1200 mg/day, high fat (50%) meal on day 8 after 7 days with typical fat meals
[9] = 600 mg, 600 mg single dose, Fast, healthy adults, Study 12
[10] = 600 mg, 600 mg single dose, Fed 50% fat, healthy adults, Study 12
[11] = 600 mg/day, 600 mg/day x 7 days, Fast, healthy adults, historical Studies C-1073-05 and C-1073-300 Part II (reference for C3)
[12] = 600 mg/day, 600 mg/day x 7 days, Fed 34% fat, healthy adults, Cohort 3 of CORT-108297-102
[13] = 1200 mg, 1200 mg single dose, Fast, healthy adults, Study 20
[14] = 1200 mg, 1200 mg single dose, Fed 50% fat, healthy adults, Study 20
[15] = 1200 mg/day, 1200 mg/day x 7 days, Fed 34% fat, healthy adults, Study 27

CC#C[C@]1(O)CC[C@H]2[C@@H]3CCC4=CC(=O)CCC4=C3[C@@H](c3ccc(N(C)C)cc3)C[C@@]21C [Mifepristone, 17-beta-hydroxy-11-beta-(4-dimethyl-aminophenyl)-17-alpha-(1-propynyl)-estra-4,9-dien-3-one]
AUCinf Ratio of Geometric Means [1, 3]: 1.29
Cmax Ratio of Geometric Means [1, 3]: 1.19
increase in AUC0-24 as compared to the same dose in the fasted state [1, 4]: 44%
increase in Cmax as compared to the same dose in the fasted state [1, 4]: 34%
AUC0-24 Ratio of Geometric Means [1, 5]: 1.44
Cmax Ratio of Geometric Means [1, 5]: 1.34
AUCinf Ratio of Geometric Means [1, 6]: 1.42
Cmax Ratio of Geometric Means [1, 6]: 1.30
mean increase in mifepristone exposure relative to the fasted state ([1]; 1200 mg/day for 7 days with typical fat meals vs 7 days fasted): 65%
Cmax Geo Mean ([1]; 1200 mg/day x 7 days, Fast, healthy adults, Study 27): 3223 ng/mL
AUC0-24 Ratio of Geometric Means [1, 7]: 1.65
Cmax Ratio of Geometric Means [1, 7]: 1.56
effect on Cmax of switching to a high fat meal [1, 8]: little or no effect
effect on exposure of switching to a high fat meal [1, 8]: little or no effect
AUC(0-inf) [1, 9]: 104000 ng·h/mL
Cmax [1, 9]: 2310 ng/mL
AUC(0-inf) [1, 10]: 134000 ng·h/mL
Cmax [1, 10]: 2740 ng/mL
AUC(0-t) [1, 11]: 43600 ng·h/mL
Cmax [1, 11]: 3040 ng/mL
AUC(0-t) [1, 12]: 62600 ng·h/mL
Cmax [1, 12]: 4070 ng/mL
AUC(0-inf) [1, 13]: 134000 ng·h/mL
Cmax [1, 13]: 2830 ng/mL
AUC(0-inf) [1, 14]: 191000 ng·h/mL
Cmax [1, 14]: 3660 ng/mL
AUC(0-t) ([1]; 1200 mg/day, 1200 mg/day x 7 days, Fast, healthy adults, Study 27): 44200 ng·h/mL
AUC(0-t) [1, 15]: 72800 ng·h/mL
Cmax [1, 15]: 5040 ng/mL
dose proportionality of exposure and Cmax ([1]; multiple dosing, doses above 600 mg, fasted): strong lack of dose proportionality
difference in plasma drug concentration from one patient to another [2]: ≤ 800%
